Experimental data as given in ChEMBL document CHEMBL3286369, “β-Secretase (BACE1)-inhibiting C-methylrotenoids from Abronia nana suspension cultures” (Bioorg Med Chem Lett, 2014).
Values belong to the compound of their own block, whether it stands above or below them. Active and inactive are the calls of the source. The calls are words filed in the database; no cut-off is given here.

Columns and labels:
Trypsin (Homo sapiens) = Trypsin (Homo sapiens) (UniProt P07477+P07478+P35030); assay: Inhibition of trypsin (unknown origin) up to 1 mM; assay type: protein assay
Beta-secretase 1 [1] = molecular target: T1, Beta-secretase 1 (Homo sapiens, UniProt P56817); assay: Non-competitive inhibition of BACE1 (unknown origin) by Dixon plot analysis
Beta-secretase 1 [2] = molecular target: T1, Beta-secretase 1; assay: Inhibition of BACE1 (unknown origin)
Homo sapiens [3] = organism: Homo sapiens; assay: Inhibition of chymotrypsin (unknown origin) up to 1 mM
Homo sapiens [4] = organism: Homo sapiens; assay: Inhibition of elastase (unknown origin) up to 1 mM
N2a = assay: Cytotoxicity against mouse N2A cells transfected with human APP Swedish mutant assessed as cell viability at 1 to 50 uM; assay type: cell-based
[5] = molecular target: Beta-secretase 1 (Mus musculus) (UniProt P56818); assay: Inhibition of BACE1 in mouse N2A cells transfected with human APP Swedish mutant assessed as amyloid beta (1-42) production at 50 uM; assay type: cell-based; parameters: scale not given: the % may be the effect or the level left
Beta-secretase 1 [6] = molecular target: T1, Beta-secretase 1; assay: Inhibition of BACE1 (unknown origin) expressed in CHO cells coexpressing human APP gene assessed as inhibition of beta-amyloid synthesis; assay type: cell-based

T1 sequence (P56817 whole entry): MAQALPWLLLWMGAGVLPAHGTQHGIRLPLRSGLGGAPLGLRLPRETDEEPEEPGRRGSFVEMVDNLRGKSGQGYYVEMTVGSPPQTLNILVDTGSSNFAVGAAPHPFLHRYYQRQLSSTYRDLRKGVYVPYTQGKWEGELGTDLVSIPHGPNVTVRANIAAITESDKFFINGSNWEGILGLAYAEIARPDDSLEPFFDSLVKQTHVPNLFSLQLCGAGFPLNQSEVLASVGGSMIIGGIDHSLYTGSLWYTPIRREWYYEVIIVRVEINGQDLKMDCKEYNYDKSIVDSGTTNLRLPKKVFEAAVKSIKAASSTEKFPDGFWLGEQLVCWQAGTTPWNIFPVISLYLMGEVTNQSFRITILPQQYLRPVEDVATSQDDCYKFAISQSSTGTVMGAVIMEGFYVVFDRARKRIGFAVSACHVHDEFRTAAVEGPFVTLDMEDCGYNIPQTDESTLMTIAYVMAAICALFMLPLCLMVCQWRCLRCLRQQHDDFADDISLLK
Beta-secretase 1 (Mus musculus), sequence (P56818 whole entry): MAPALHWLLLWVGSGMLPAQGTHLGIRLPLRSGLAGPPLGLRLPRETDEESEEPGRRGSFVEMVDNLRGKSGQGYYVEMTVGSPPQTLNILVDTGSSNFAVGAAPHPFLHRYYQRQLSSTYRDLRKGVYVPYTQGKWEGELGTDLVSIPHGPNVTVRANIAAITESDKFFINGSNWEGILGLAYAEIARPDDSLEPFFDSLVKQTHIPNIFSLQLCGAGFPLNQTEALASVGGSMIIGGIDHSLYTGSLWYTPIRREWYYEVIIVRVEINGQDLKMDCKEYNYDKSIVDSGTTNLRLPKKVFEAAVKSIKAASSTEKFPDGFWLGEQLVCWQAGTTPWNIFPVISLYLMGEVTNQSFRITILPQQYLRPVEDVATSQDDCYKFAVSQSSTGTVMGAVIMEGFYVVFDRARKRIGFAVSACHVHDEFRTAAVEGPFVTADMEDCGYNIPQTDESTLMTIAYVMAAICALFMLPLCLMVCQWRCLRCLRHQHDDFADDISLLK

Compound: C=C[C@H](c1ccccc1O)c1cc(O)c(OC)cc1OC [LATIFOLIN]
IC50 (Beta-secretase 1 [6]): 180 µM

Compound: O=C(OC[C@H]1O[C@@H](OC(=O)c2cc(O)c(O)c(O)c2)[C@H](OC(=O)c2cc(O)c(O)c(O)c2)[C@@H](OC(=O)c2cc(O)c(O)c(O)c2)[C@@H]1OC(=O)c1cc(O)c(O)c(O)c1)c1cc(O)c(O)c(O)c1 [PENTAGALLOYL GLUCOSE]
IC50 (Beta-secretase 1 [2]): 3.76 µM | Ki (Beta-secretase 1 [2]): 5.13 µM

Compound: O=C(O[C@@H]1O[C@@H]2COC(=O)c3cc(O)c(O)c(O)c3-c3c(cc(O)c(O)c3O)C(=O)O[C@H]2[C@H](OC(=O)c2cc(O)c(O)c(O)c2)[C@H]1OC(=O)c1cc(O)c(O)c(O)c1)c1cc(O)c(O)c(O)c1 [EUGENIIN]
IC50 (Beta-secretase 1 [2]): 3.1 µM | Ki (Beta-secretase 1 [2]): 6.84 µM

Compound: O=C1O[C@@H]2[C@@H](OC(=O)c3cc(O)c(O)c(O)c3-c3c1cc(O)c(O)c3O)[C@H](O)O[C@@H]1COC(=O)c3cc(O)c(O)c(O)c3-c3c(O)c(O)c4oc(=O)c5c(c(O)c(O)c6oc(=O)c3c4c65)-c3c(cc(O)c(O)c3O)C(=O)O[C@@H]21 [PUNICALAGIN]
IC50 (Beta-secretase 1 [2]): 0.41 µM

Compound: O=c1oc2c(O)c(O)cc3c(=O)oc4c(O)c(O)cc1c4c23 [ELLAGIC ACID]
IC50 (Beta-secretase 1 [2]): 3.9 µM

Compound: COc1cc2c(c(O)c1C)C(=O)[C@@]1(O)c3cccc(OC)c3OC[C@@H]1O2
IC50 (Beta-secretase 1 [2]): 62.2 µM | inhibition (Beta-secretase 1 [2]): Dose-dependent effect

Now from value to compound, other results behind:

inhibition (Trypsin (Homo sapiens)): inactive | Ki (Beta-secretase 1 [1]): 5.01 µM | IC50 (Beta-secretase 1 [2]): 4.77 µM | inhibition (Beta-secretase 1 [2]): Dose-dependent effect | inhibition (Homo sapiens [3]): inactive | inhibition (Homo sapiens [4]): inactive
Compound: COC1Oc2cc(O)ccc2-c2c1oc1cc(O)c(C)c(O)c1c2=O (centres undefined) [BOERAVINONE D]

inhibition (Trypsin (Homo sapiens)): inactive | Ki (Beta-secretase 1 [1]): 4.28 µM | IC50 (Beta-secretase 1 [2]): 4.24 µM | inhibition (Beta-secretase 1 [2]): Dose-dependent effect | inhibition (Homo sapiens [3]): inactive | Activity [5]: 56% | inhibition (Homo sapiens [4]): inactive
Compound: COc1cc2oc3c(c(=O)c2c(O)c1C)-c1ccc(O)cc1OC3O (centres undefined)
Activity (N2a): Non-toxic

IC50 (Beta-secretase 1 [2]): > 3000 µM
Compound: COc1cc2oc3c(c(=O)c2c(O)c1C)-c1ccccc1OC3OC (centres undefined)
